Read-outs that look alike come from different tables or passages of the source.
Tests used:
[1] = test system: hiPSC-based cardiac organoids; conditions: for concentration at which cardiac organoids/tissue failed to differentiate (cardiac differentiation abolished) / organoid formation / concentration with no contractile functions (stopped beating): human; for organoid formation: 100 μM
[2] = test system: zebrafish embryos; conditions: for proportion of embryos with normal (D-looped) heart looping: across / at higher concentrations; for embryos expressing the GFP transgene: Tg(my17:GFP)
[3] = test system: cardiac organoids (cTnT positive cells); assay: flow cytometry of cardiac differentiation efficiency (cTnT) of drug-treated organoids; type: cell-based, human; conditions: with increasing treatment concentration
Procedure: Cardiac organoids were dissociated using 0.25% Trypsin for 10-15 minutes. Cells were collected, centrifuged and washed with PBS. Cells were fixed and permeabilized with a mixture of 4% (vol/vol) paraformaldehyde and 0.2% (vol/vol) TritonX solution for 15 minutes. Cells were incubated with primary antibody cardiac troponin T (Thermofisher cat. no. MA5-12960) in a 1:250 dilution for 1 hour in PBS, and then incubated with AlexaFluor 546 secondary fluorophore for an additional hour. The cell suspension was washed, centrifuged and filtered through 35 μm mesh cell strainer. Flow cytometry was performed on the BDAccuriC6 at Flow Cytometry Core at Syracuse University.
Concentrations were chosen after evaluation of blood plasma concentrations reported for each drug from the FDA drug information database (accessdata.FDA.gov). Concentrations were chosen to be at or approximated by blood plasma concentrations, while accounting for drug solubility in water or DMSO, while also supplying a large range in order to detect potential toxicity. Drugs were diluted in the appropriate culture media at three concentrations each increasing by a factor of 10 with respective controls. […] Samples were terminated on Day 20 for motion tracking analysis and for fluorescence/confocal imaging to assess the developmental toxicity of specific drugs based on the organoid morphology and contractile physiology.

[4] = test system: hiPSC-based cardiac organoids; assay: cardiac developmental toxicity assay on hiPSC-derived cardiac organoids (differentiation, contractile behavior, 3D morphology)

Question: For `CC1(C)S[C@@H]2[C@H](NC(=O)[C@H](N)c3ccc(O)cc3)C(=O)N2[C@H]1C(=O)O` [Amoxicillin], which FWHM [1] is on record?
Answer: smaller

Question: What about the beat duration [1] of the same compound?
Answer: increased

Question: What about the beat rate [1] of the same compound?
Answer: decreased

Question: What about the height [1] of the same compound?
Answer: smaller

Question: For `C[C@H]1c2cccc(O)c2C(=O)C2=C(O)[C@]3(O)C(=O)C(C(N)=O)=C(O)[C@@H](N(C)C)[C@@H]3[C@@H](O)[C@@H]21` [Doxycycline], which FWHM [1] is on record?
Answer: Significant toxicity

Question: And the beat duration [1]?
Answer: Significant toxicity

Question: What about the beat rate [1] of the same compound?
Answer: Significant toxicity

Question: What about the contraction velocity [1] of the same compound?
Answer: Significant toxicity

Question: What about the height [1] of the same compound?
Answer: Significant toxicity

Question: What about the “concentration at which cardiac organoids/tissue failed to differentiate (cardiac differentiation abolished)” value [1] of the same compound?
Answer: 100 µM

Question: What about the organoid formation [1] of the same compound?
Answer: failed to create 3D organoids

Question: And the “developmental toxicity (cardiac looping)” value ([2]; zebrafish, in vivo)?
Answer: severe developmental toxic effects

Question: And the “developmental toxicity on zebrafish embryonic heart development (cardiac looping)” value ([2]; zebrafish, in vivo)?
Answer: moderate toxicity

Question: With `CN(C)CCOC(C)(c1ccccc1)c1ccccn1` (stereo not shown) [Doxylamine Succinate] as the compound, how does the “percentage of cells expressing cTnT” value [3] read?
Answer: did not affect

Question: And the beat rate [1]?
Answer: slower

Question: And the “effect on contractile functions (overall)” value [1]?
Answer: prominent effects

Question: What about the “organoid formation / 3D organoid morphology” value [1] of the same compound?
Answer: no drug effects

Question: What about the “proportion of embryos with normal (D-looped) heart looping” value ([2]; 48 hpf) of the same compound?
Answer: considerable proportion

Question: How did the “organoid formation / 3D organoid morphology” value [1] turn out when `CC1=C(/C=C/C(C)=C/C=C/C(C)=C\C(=O)O)C(C)(C)CCC1` [Isotretinoin, 13-cis-retinoic acid] was run?
Answer: large organoids

Question: And the “concentration at which cardiac organoids/tissue failed to differentiate (cardiac differentiation abolished)” value [1]?
Answer: 1 µM

Question: What about the “embryos expressing the GFP transgene” value ([2]; zebrafish, in vivo, 48 hpf) of the same compound?
Answer: 0%

Question: What about the “developmental toxicity (cardiac looping)” value ([2]; zebrafish, in vivo) of the same compound?
Answer: severe developmental toxic effects

Question: What about the “developmental toxicity on zebrafish embryonic heart development (cardiac looping)” value ([2]; zebrafish, in vivo) of the same compound?
Answer: severe defects

Question: Which results are given for `O=C([O-])[O-].[Li+].[Li+]` [Lithium Carbonate]?
Answer: developmental toxicity (cardiac looping) ([2]; 48 hpf, all concentrations): severe developmental toxic effects; developmental toxicity on zebrafish embryonic heart development (cardiac looping) ([2]; 48 hpf, concentration not specified): moderate toxicity; organoid formation / 3D organoid morphology ([4]; all tested concentrations or not specified, vs controls): mild toxicity; effect on cardiac differentiation ([4]; concentration not specified): slight reduction; effect on contractile functions (overall) ([4]; concentration not specified, listed as lithium): did not affect; effect on contractile functions (overall) ([4]; concentration not specified, listed as lithium carbonate): no significant toxicity effects; FWHM ([4]; high / higher concentrations (thalidomide in b100: 100 μM)): moderate toxicity

Question: With `O=C1NC(=O)C(c2ccccc2)(c2ccccc2)N1` [Phenytoin] as the compound, how does the FWHM [1] read?
Answer: smaller

Question: What about the height [1] of the same compound?
Answer: smaller

Question: And the “organoid formation / 3D organoid morphology” value [1]?
Answer: smaller cardiac organoids than controls, but still maintained structural integrity

Question: And the “concentration with no contractile functions (stopped beating)” value [1]?
Answer: 100 µM

Question: And the “developmental toxicity (cardiac looping)” value ([2]; zebrafish, in vivo)?
Answer: mild embryotoxic effects

Question: What about the “developmental toxicity on zebrafish embryonic heart development (cardiac looping)” value ([2]; zebrafish, in vivo) of the same compound?
Answer: mild developmental toxic effect

Question: `CO[C@H]1/C=C/O[C@@]2(C)Oc3c(C)c(O)c4c(O)c(c(/C=N/N5CCN(C)CC5)c(O)c4c3C2=O)NC(=O)/C(C)=C\C=C\[C@H](C)[C@H](O)[C@@H](C)[C@@H](O)[C@@H](C)[C@H](OC(C)=O)[C@@H]1C` [Rifampicin] was tested. Which FWHM [1] did it give?
Answer: toxicity

Question: And the beat rate [1]?
Answer: toxicity

Question: And the contraction velocity [1]?
Answer: toxicity

Question: What about the height [1] of the same compound?
Answer: toxicity

Question: What about the “concentration at which cardiac organoids/tissue failed to differentiate (cardiac differentiation abolished)” value [1] of the same compound?
Answer: 100 µM

Question: And the organoid formation [1]?
Answer: severe developmental toxicity at a high concentration (100 μM) with no organoid formation

Question: What about the “developmental toxicity (cardiac looping)” value ([2]; zebrafish, in vivo) of the same compound?
Answer: mild embryotoxic effects

Question: And the “developmental toxicity on zebrafish embryonic heart development (cardiac looping)” value ([2]; zebrafish, in vivo)?
Answer: mild developmental toxic effect

Question: With `O=C1CCC(N2C(=O)c3ccccc3C2=O)C(=O)N1` (stereo not shown) [Thalidomide] as the compound, how does the “percentage of cells expressing cTnT” value [3] read?
Answer: considerable reduction

Question: And the area ratio [1]?
Answer: decrease

Question: What about the “area ratio of cardiac muscle coverage” value [1] of the same compound?
Answer: less cardiac tissue coverage

Question: What about the beat rate [1] of the same compound?
Answer: high variability

Question: What about the “organoid formation / 3D organoid morphology” value [1] of the same compound?
Answer: abnormal cardiac organoids

Question: What about the “proportion of embryos with normal (D-looped) heart looping” value ([2]; 48 hpf) of the same compound?
Answer: did not notably decrease

Question: What about the “developmental toxicity (cardiac looping)” value ([2]; zebrafish, in vivo) of the same compound?
Answer: very mild toxicity level

Question: And the “developmental toxicity on zebrafish embryonic heart development (cardiac looping)” value ([2]; zebrafish, in vivo)?
Answer: not as significant as what was observed in the organoid model

Question: For `CC1=C(/C=C/C(C)=C/C=C/C(C)=C/C(=O)O)C(C)(C)CCC1` [Tretinoin, all-trans-retinoic acid], which “effect on cardiac differentiation” value [1] is on record?
Answer: abolished all cardiac differentiation

Question: And the “concentration at which cardiac organoids/tissue failed to differentiate (cardiac differentiation abolished)” value [1]?
Answer: 10 µM

Question: And the “concentration with no contractile functions (stopped beating)” value [1]?
Answer: 10 µM

Question: And the “embryos expressing the GFP transgene” value ([2]; zebrafish, in vivo, 48 hpf)?
Answer: 0%

Question: What about the “developmental toxicity (cardiac looping)” value ([2]; zebrafish, in vivo) of the same compound?
Answer: severe developmental toxic effects

Question: What about the “developmental toxicity on zebrafish embryonic heart development (cardiac looping)” value ([2]; zebrafish, in vivo) of the same compound?
Answer: severe defects

Reference: US20220397564A1, “ENGINEERING SPATIAL-ORGANIZED CARDIAC ORGANOIDS FOR DEVELOPMENTAL TOXICITY TESTING” (priority 2021, published 2022)
